Laboratory results from patent publication US20110212960A1, “NEW COMPOUNDS FOR THE TREATMENT OF CNS DISORDER” (BOEHRINGER INGELHEIM INTERNATIONAL GMBH, priority 2009, published 2011).

Molecular target: human PDE9A (Homo sapiens, UniProt O76083)
Test: not given
Conditions: concentrations of up to 100 micromolar; cited from earlier work

human PDE9A, sequence (O76083 whole entry): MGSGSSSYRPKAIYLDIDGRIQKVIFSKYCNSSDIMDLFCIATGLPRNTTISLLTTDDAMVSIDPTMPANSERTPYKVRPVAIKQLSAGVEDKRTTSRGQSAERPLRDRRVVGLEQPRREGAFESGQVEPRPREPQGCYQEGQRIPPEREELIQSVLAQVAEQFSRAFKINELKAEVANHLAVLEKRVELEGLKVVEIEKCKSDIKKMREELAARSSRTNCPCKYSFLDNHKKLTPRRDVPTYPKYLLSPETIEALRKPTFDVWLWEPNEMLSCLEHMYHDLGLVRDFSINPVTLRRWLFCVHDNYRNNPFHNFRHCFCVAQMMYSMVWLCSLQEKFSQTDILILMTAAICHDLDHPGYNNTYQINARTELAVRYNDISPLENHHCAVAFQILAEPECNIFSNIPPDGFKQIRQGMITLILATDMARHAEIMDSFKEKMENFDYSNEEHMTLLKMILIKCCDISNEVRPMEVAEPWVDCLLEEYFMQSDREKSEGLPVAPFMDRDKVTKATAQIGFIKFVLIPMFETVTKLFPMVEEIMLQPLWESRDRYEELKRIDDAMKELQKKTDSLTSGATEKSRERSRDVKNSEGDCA

| Compound | inhibition on the isolated enzyme |
| --- | --- |
| CCOC(=O)C1=C[C@]2(CC)CCCN3CCc4c(n1c1ccccc41)[C@@H]32 [vinpocetine] | no inhibition |
| COc1ccc(C2CNC(=O)C2)cc1OC1CCCC1 (stereo not shown) [rolipram] | no inhibition |
| CC(=O)Nc1ccc(-c2c[nH]c(=O)cn2)cc1 [SKF94120] | no inhibition |
| OCCN(CCO)c1nc(N2CCCCC2)c2nc(N(CCO)CCO)nc(N3CCCCC3)c2n1 [dipyridamole] | no inhibition |

Molecular target: T1, human PDE9A2 (Homo sapiens, UniProt O76083)
T1 construct: made in house; host or cells: Sf9 insect cells (infected; crude lysate used as enzyme source)
Test: PDE9A2 enzymatic activity assay (scintillation proximity assay)
Format: biochemical
Conditions: not given
Procedure: The PDE9A2 enzymatic activity assay was run as scintillation proximity assay (SPA), in general according to the protocol of the manufacturer (Amersham Biosciences, product number: TRKQ 7100).
As enzyme source, lysate (PBS with 1% Triton X-100 supplemented with protease inhibitors, cell debris removed by centrifugation at 13.000 rpm for 30 min) of SF 9 cell expressing the human PDE9A2 was used. The total protein amount included in the assay varied upon infection and production efficacy of the SF9 cells and lay in the range of 0.1-100 ng.
In general, the assay conditions were as follows: • total assay volume: 40 microliter • protein amount: 0.1-50 ng • substrate concentration (cGMP): 20 nanomolar; ˜1 mCi/l • incubation time: 60 min at room temperature • final DMSO concentration: 0.2-1%
The assays were run in 384-well format. The test reagents as well as the enzyme and the substrate were diluted in assay buffer. The assay buffer contained 50 mM Tris, 8.3 mM MgCl2, 1.7 mM EGTA, 0.1% BSA, 0.05% Tween 20; the pH of assay buffer was adjusted to 7.5. The reaction was stopped by applying a PDE9 specific inhibitor (e.g. compounds according to WO04099210 or WO04099211) in excess.
The activity of the positive control (minus the negative control=background) is set to 100% and activity in the presence of test compound is expressed relative to these 100%.

T1 sequence (O76083 1-533 isoform O76083-2): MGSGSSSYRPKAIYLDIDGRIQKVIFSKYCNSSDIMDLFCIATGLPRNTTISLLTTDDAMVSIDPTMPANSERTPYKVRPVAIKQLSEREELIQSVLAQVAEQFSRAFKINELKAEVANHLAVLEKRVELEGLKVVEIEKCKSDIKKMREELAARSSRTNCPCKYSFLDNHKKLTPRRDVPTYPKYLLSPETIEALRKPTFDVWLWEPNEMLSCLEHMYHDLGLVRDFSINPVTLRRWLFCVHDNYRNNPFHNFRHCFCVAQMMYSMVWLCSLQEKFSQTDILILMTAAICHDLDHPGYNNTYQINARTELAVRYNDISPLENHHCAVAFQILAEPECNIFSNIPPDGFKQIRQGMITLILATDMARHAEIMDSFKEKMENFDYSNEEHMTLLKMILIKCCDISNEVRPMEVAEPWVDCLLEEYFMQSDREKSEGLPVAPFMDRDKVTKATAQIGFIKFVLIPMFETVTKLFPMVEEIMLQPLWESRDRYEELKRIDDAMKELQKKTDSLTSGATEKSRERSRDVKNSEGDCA

| Compound | IC50 [nM] |
| --- | --- |
| O=C([C@H]1CC[C@@H]1c1nc2c(cnn2C2CCC(F)(F)CC2)c(=O)[nH]1)N1C[C@H]2CCC[C@H]2C1 (racemic) [Example 8] | 1 to 200 |

Same assay, conditions: at 10 micromolar concentration; read-out: % inhibition of PDE9A2

| Compound | inhibition at 10 µM [%] |
| --- | --- |
| O=c1[nH]c([C@@H]2CC[C@H]2CO)nc2c1cnn2C1CCC(F)(F)CC1 (racemic) [Example 33] | 83 |
| Cc1noc(C2CCC2c2nc3c(cnn3C3CCC(F)(F)CC3)c(=O)[nH]2)n1 (racemic) [Example 32] | 91 |
| Cc1ccncc1-n1ncc2c(=O)[nH]c(C3CC(C)(C)C3)nc21 [Example 35] | 50 |
| CCOC(=O)[C@H]1CC[C@@H]1c1nc2c(cnn2C2CCCC2)c(=O)[nH]1 (racemic) [Example 27] | 98 |
| O=C(O)[C@H]1CC[C@@H]1c1nc2c(cnn2C2CCC(F)(F)CC2)c(=O)[nH]1 (racemic) [Example 46] | 91 |
| O=C([C@H]1CC[C@@H]1c1nc2c(cnn2C2CCC(F)(F)CC2)c(=O)[nH]1)N1CC(F)(F)C(F)(F)C1 (racemic) [Example 4] | 97 |
| O=C(C1CCCC1c1nc2c(cnn2C2CCCC2)c(=O)[nH]1)N1CCCCC1 (racemic) [Example 26] | 99 |
| O=c1[nH]c(C2CCC2)nc2c1cnn2C1CCCC1 [Example 29] | 98 |
| CCN(CC)C(=O)[C@H]1CC[C@@H]1c1nc2c(cnn2C2CCC(F)(F)CC2)c(=O)[nH]1 (racemic) [Example 17] | 99 |

Next, values leading:

| inhibition at 10 µM [%] | Compound |
| --- | --- |
| 95 | O=C([C@H]1CCC[C@@H]1c1nc2c(cnn2C2CCC(F)(F)CC2)c(=O)[nH]1)N1CCCCC1 (racemic) [Example 25] |
| 100 | O=C([C@H]1CC[C@@H]1c1nc2c(cnn2C2CCC(F)(F)CC2)c(=O)[nH]1)N1CCC(F)(F)C1 (racemic) [Example 3] |
| 100 | O=C([C@H]1CC[C@@H]1c1nc2c(cnn2C2CCC(F)(F)CC2)c(=O)[nH]1)N1CCCC(F)(F)C1 (racemic) [Example 14] |
| 99 | O=C([C@H]1CC[C@@H]1c1nc2c(cnn2C2CCC(F)(F)CC2)c(=O)[nH]1)N1CCOCC1 (racemic) [Example 1] |
| 57 | O=C([C@@H]1CC[C@@H]1c1nc2c(cnn2C2CCC(F)(F)CC2)c(=O)[nH]1)N1CCCCC1 (racemic) [Example 34] |
| 97 | COC1(C)CCN(C(=O)[C@H]2CC[C@@H]2c2nc3c(cnn3C3CCC(F)(F)CC3)c(=O)[nH]2)CC1 (racemic) [Example 13] |
| 99 | O=C([C@H]1CC[C@@H]1c1nc2c(cnn2C2CCC(F)(F)CC2)c(=O)[nH]1)N1CCCC1 (racemic) [Example 12] |
| 100 | O=C([C@H]1CC[C@@H]1c1nc2c(cnn2C2CCC(F)(F)CC2)c(=O)[nH]1)N1CC[C@@H](F)C1 (racemic) [Example 2] |
| 102 | CO[C@@H]1CCN(C(=O)[C@H]2CC[C@@H]2c2nc3c(cnn3C3CCC(F)(F)CC3)c(=O)[nH]2)C1 (racemic) [Example 7] |
| 94 | O=C([C@H]1CC[C@@H]1c1nc2c(cnn2C2CCC(F)(F)CC2)c(=O)[nH]1)N1CCC(F)CC1 (racemic) [Example 11] |
| 92 | O=C([C@H]1CCC[C@@H]1c1nc2c(cnn2C2CCC(F)(F)CC2)c(=O)[nH]1)N1CCC(F)(F)CC1 (racemic) [Example 19] |

Same assay, conditions: read-out: % inhibition of PDE9A2

| Compound | inhibition at 10 µM [%] |
| --- | --- |
| O=C([C@H]1CC[C@@H]1c1nc2c(cnn2C2CCC(F)(F)CC2)c(=O)[nH]1)N1C[C@H]2CCC[C@H]2C1 (racemic) [Example 8] | 100 |

Same assay, conditions: specific IC50 value lies within the given range; read-out: IC50 within range [nanomolar (nM)]

| Compound | IC50 [nM] |
| --- | --- |
| O=c1[nH]c([C@@H]2CC[C@H]2CO)nc2c1cnn2C1CCC(F)(F)CC1 (racemic) [Example 33] | 201 to 5000 |
| Cc1noc(C2CCC2c2nc3c(cnn3C3CCC(F)(F)CC3)c(=O)[nH]2)n1 (racemic) [Example 32] | 1 to 200 |
| Cc1ccncc1-n1ncc2c(=O)[nH]c(C3CC(C)(C)C3)nc21 [Example 35] | 201 to 5000 |
| CCOC(=O)[C@H]1CC[C@@H]1c1nc2c(cnn2C2CCCC2)c(=O)[nH]1 (racemic) [Example 27] | 1 to 200 |
| O=C(O)[C@H]1CC[C@@H]1c1nc2c(cnn2C2CCC(F)(F)CC2)c(=O)[nH]1 (racemic) [Example 46] | 1 to 200 |
| O=C([C@H]1CC[C@@H]1c1nc2c(cnn2C2CCC(F)(F)CC2)c(=O)[nH]1)N1CC(F)(F)C(F)(F)C1 (racemic) [Example 4] | 1 to 200 |
| O=C(C1CCCC1c1nc2c(cnn2C2CCCC2)c(=O)[nH]1)N1CCCCC1 (racemic) [Example 26] | 1 to 200 |
| O=c1[nH]c(C2CCC2)nc2c1cnn2C1CCCC1 [Example 29] | 1 to 200 |
| CCN(CC)C(=O)[C@H]1CC[C@@H]1c1nc2c(cnn2C2CCC(F)(F)CC2)c(=O)[nH]1 (racemic) [Example 17] | 1 to 200 |

Continued, values first:

| IC50 [nM] | Compound |
| --- | --- |
| 201 to 5000 | O=C([C@H]1CCC[C@@H]1c1nc2c(cnn2C2CCC(F)(F)CC2)c(=O)[nH]1)N1CCCCC1 (racemic) [Example 25] |
| 1 to 200 | O=C([C@H]1CC[C@@H]1c1nc2c(cnn2C2CCC(F)(F)CC2)c(=O)[nH]1)N1CCC(F)(F)C1 (racemic) [Example 3] |
| 1 to 200 | O=C([C@H]1CC[C@@H]1c1nc2c(cnn2C2CCC(F)(F)CC2)c(=O)[nH]1)N1CCCC(F)(F)C1 (racemic) [Example 14] |
| 1 to 200 | O=C([C@H]1CC[C@@H]1c1nc2c(cnn2C2CCC(F)(F)CC2)c(=O)[nH]1)N1CCOCC1 (racemic) [Example 1] |
| 201 to 5000 | O=C([C@@H]1CC[C@@H]1c1nc2c(cnn2C2CCC(F)(F)CC2)c(=O)[nH]1)N1CCCCC1 (racemic) [Example 34] |
| 1 to 200 | COC1(C)CCN(C(=O)[C@H]2CC[C@@H]2c2nc3c(cnn3C3CCC(F)(F)CC3)c(=O)[nH]2)CC1 (racemic) [Example 13] |
| 1 to 200 | O=C([C@H]1CC[C@@H]1c1nc2c(cnn2C2CCC(F)(F)CC2)c(=O)[nH]1)N1CCCC1 (racemic) [Example 12] |
| 1 to 200 | O=C([C@H]1CC[C@@H]1c1nc2c(cnn2C2CCC(F)(F)CC2)c(=O)[nH]1)N1CC[C@@H](F)C1 (racemic) [Example 2] |
| 1 to 200 | CO[C@@H]1CCN(C(=O)[C@H]2CC[C@@H]2c2nc3c(cnn3C3CCC(F)(F)CC3)c(=O)[nH]2)C1 (racemic) [Example 7] |
| 1 to 200 | O=C([C@H]1CC[C@@H]1c1nc2c(cnn2C2CCC(F)(F)CC2)c(=O)[nH]1)N1CCC(F)CC1 (racemic) [Example 11] |
| 1 to 200 | O=C([C@H]1CCC[C@@H]1c1nc2c(cnn2C2CCC(F)(F)CC2)c(=O)[nH]1)N1CCC(F)(F)CC1 (racemic) [Example 19] |
